Source: patent US20240391862A1, “(1,4,5-TRISUBSTITUTED-1H-PYRAZOL-3-YL)OXY-2-ALKOXY ALKYL ACIDS AND THEIR DERIVATIVES, THEIR SALTS AND THEIR USE AS HERBICIDAL AGENTS” (Bayer AKtiengesellschaft, priority 2021, published 2024)

Key:
ZEAMX = assay: Post-emergence herbicidal effect and crop plant compatibility, greenhouse pot test; format: in vivo, Zea mays; details: one-leaf stage, rated visually after about 3 weeks vs untreated controls; for plant injury at 80 g/ha: read-out: Post-emergence effect at 80 g/ha against ZEAMX in %
In short: (§1)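 Sandy loam pots, greenhouse. One-leaf stage (2–3 wk after sowing) foliar spray; WP/EC in water + 0.5% additive, 600 l/ha; 20–320 g/ha. Visual score ~3 wk, 0–100% vs untreated.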

TRZAS = assay: as above; format: in vivo, Triticum aestivum; details: 20 g/ha, one-leaf stage, rated visually after about 3 weeks vs untreated controls
In short: as §1

ORYSA = assay: as above; format: in vivo, Oryza sativa; details: for Post-emergence effect at 320 g/ha against ORYSA in %: one-leaf stage, rated visually after about 3 weeks vs untreated controls; for Post-emergence effect against ORYSA: visual rating about 3 weeks after treatment, crop plant
Description: • ALOMY: Alopecurus myosuroides SETVI: Setaria viridis • AVEFA: Avena fatua POLCO: Fallopia convolvulus • AMARE: Amaranthus retroflexus ECHCG: Echinochloa crus-galli • LOLRJ: Lolium rigidum STEME: Stellaria media • VERPE: Veronica persica MATIN: Tripleurospermum inodorum • DIGSA: Digitaria sanguinalis ABUTH: Abutylon threophrasti • TRZAS: Triticum aestivum VIOTR: Viola tricolor • BRSNW: Brassica napus ZEAMX: Zea mays • PHBPU: Ipomoea purpurea GLXMA: Glycine max • ORYSA: Oryza sativa HORMU: Hordeum murinum
Seeds of monocotyledonous and dicotyledonous weeds and crop plants are placed in sandy loam in plastic or organic planting pots, covered with soil and cultivated in a greenhouse under controlled growth conditions. 2 to 3 weeks after sowing, the trial plants are treated at the one-leaf stage. The compounds of the invention, formulated in the form of wettable powders (WP) or as emulsion concentrates (EC), are then sprayed onto the green parts of the plants as aqueous suspension or emulsion with addition of 0.5% additive at a water application rate of 600 l/ha (converted). After the test plants have been kept in the greenhouse under optimum growth conditions for about 3 weeks, the activity of the preparations is rated visually in comparison to untreated controls. For example, 100% activity=the plants have died, 0% activity=like control plants.
Tables 20a to 38c below show the effects/crop compatibilities of selected compounds of the general formula (I) on various harmful plants at an application rate corresponding to 20 to 320 g/ha, which were obtained by the trial procedure specified above.

PHBPU = assay: Post-emergence herbicidal effect, greenhouse pot test; format: in vivo, Ipomoea purpurea
In short: (§2)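 Visual % activity scored roughly 3 weeks post-spray against untreated plants, where 100% means death and 0% equals control. Plants were treated at the one-leaf stage, 2 to 3 weeks after sowing in sandy loam, at 20 to 320 g/ha.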

VIOTR = assay: as above; format: in vivo, Viola tricolor
In short: as §2

ABUTH = assay: as above; format: in vivo, Abutilon theophrasti; details: visual rating about 3 weeks after treatment
In short: as §2

ALOMY = assay: as above; format: in vivo, Alopecurus myosuroides; details: 320 g/ha, visual rating about 3 weeks after treatment
In short: as §2

AMARE = assay: as above; format: in vivo, Amaranthus retroflexus; details: visual rating about 3 weeks after treatment
In short: as §2

AVEFA = assay: as above; format: in vivo, Avena fatua; details: 320 g/ha, visual rating about 3 weeks after treatment
In short: as §2

DIGSA = assay: as above; format: in vivo, Digitaria sanguinalis; details: visual rating about 3 weeks after treatment
In short: as §2

ECHCG = assay: as above; format: in vivo, Echinochloa crus-galli
In short: as §2

LOLRI = assay: as above; format: in vivo, Lolium rigidum; details: 320 g/ha
In short: as §2

MATIN = assay: as above; format: in vivo, Tripleurospermum inodorum
In short: as §2

POLCO = assay: as above; format: in vivo, Fallopia convolvulus
In short: as §2

SETVI = assay: as above; format: in vivo, Setaria viridis
In short: as §2

VERPE = assay: as above; format: in vivo, Veronica persica
In short: as §2

COC(Oc1nn(-c2ccccc2F)c(-c2ccc(F)nc2)c1Br)C(=O)O (stereo not shown) [Example I-12]
0%: Post-emergence effect at 20 g/ha against ZEAMX in % (ZEAMX; 20 g/ha) | Post-emergence effect at 20 g/ha against TRZAS in % (TRZAS)
20%: plant injury at 80 g/ha (ZEAMX; Zea mays, 504 h) | Post-emergence effect at 320 g/ha against ORYSA in % (ORYSA)

COC(=O)C(OC)Oc1nn(-c2ccc(F)nc2)c(-c2ccc(F)nc2)c1Br (stereo not shown) [Example I-15]
0%: plant injury at 20 g/ha (ZEAMX; Zea mays, 504 h, 20 g/ha, read-out: Post-emergence effect at 20 g/ha against ZEAMX in %) | percent crop injury (phytotoxicity) to wheat, post-emergence at 20 g/ha (TRZAS; Triticum aestivum, 504 h, read-out: Post-emergence effect at 20 g/ha against TRZAS in %)
10%: plant injury at 80 g/ha (ZEAMX; Zea mays, 504 h) | Post-emergence effect at 320 g/ha against ORYSA in % (ORYSA)
20%: plant injury at 320 g/ha (ZEAMX; Zea mays, 504 h, 320 g/ha, read-out: Post-emergence effect at 320 g/ha against ZEAMX in %)
80%: pest or weed control at 320 g/ha (PHBPU; Ipomoea purpurea, 504 h, 320 g/ha, read-out: Post-emergence effect against PHBPU in %) | pest or weed control at 320 g/ha (VIOTR; Viola tricolor, 504 h, 320 g/ha, read-out: Post-emergence effect against VIOTR in %)

COC(=O)C(OC)Oc1nn(-c2cccc(Cl)c2F)c(-c2cncc(F)c2)c1Br (stereo not shown) [Example I-17]
0%: Post-emergence effect against ORYSA (ORYSA; 20 g/ha)
20%: Post-emergence effect against ORYSA (ORYSA; 80 g/ha)
80%: Post-emergence effect against ABUTH (ABUTH; 20 g/ha) | Post-emergence effect against AMARE (AMARE; 20 g/ha) | Post-emergence effect against AMARE (AMARE; 80 g/ha) | Post-emergence effect against AMARE (AMARE; 320 g/ha) | Post-emergence effect against DIGSA (DIGSA; 80 g/ha) | Post-emergence effect against ECHCG in % (ECHCG; 80 g/ha) | Post-emergence effect against LOLRI in % (LOLRI) | Post-emergence effect against MATIN in % (MATIN; 20 g/ha) | Post-emergence effect against MATIN in % (MATIN; 80 g/ha) | Post-emergence effect against MATIN in % (MATIN; 320 g/ha) | Post-emergence effect against POLCO in % (POLCO; 80 g/ha) | Post-emergence effect against POLCO in % (POLCO; 320 g/ha) | Post-emergence effect against SETVI in % (SETVI; 80 g/ha) | Post-emergence effect against VERPE in % (VERPE; 20 g/ha) | Post-emergence effect against VERPE in % (VERPE; 80 g/ha)
10%: Post-emergence effect at 20 g/ha against TRZAS in % (TRZAS)
90%: Post-emergence effect against ABUTH (ABUTH; 80 g/ha) | Post-emergence effect against ABUTH (ABUTH; 320 g/ha) | Post-emergence effect against ALOMY (ALOMY) | Post-emergence effect against AVEFA (AVEFA) | Post-emergence effect against DIGSA (DIGSA; 320 g/ha) | Post-emergence effect against ECHCG in % (ECHCG; 320 g/ha) | Post-emergence effect against PHBPU in % (PHBPU; 20 g/ha) | Post-emergence effect against PHBPU in % (PHBPU; 80 g/ha) | Post-emergence effect against PHBPU in % (PHBPU; 320 g/ha) | Post-emergence effect against SETVI in % (SETVI; 320 g/ha) | Post-emergence effect against VERPE in % (VERPE; 320 g/ha) | Post-emergence effect against VIOTR in % (VIOTR; 20 g/ha) | Post-emergence effect against VIOTR in % (VIOTR; 80 g/ha) | Post-emergence effect against VIOTR in % (VIOTR; 320 g/ha)
